Assay results taken from ChEMBL document CHEMBL5726154, “Substituted heterocyclic derivative, preparation method and use thereof” (2019).

What follows are molecules tested against T1, N-acylethanolamine-hydrolyzing acid amidase (Homo sapiens, UniProt Q02083) (assay: Determining Endocannabinoid Hydrolase Activity: In the Experimental example, endocannabinoid hydrolases used were Fatty Acid Amide Hydrolase (FAAH) and N-acylethanolamide hydrolyzing acid amidase (NAAA), which were prepared by the method described in the document (PMCID: PMC3423427, PMC3723234, PMC2692831, PMC3382457). The preparation method was as followed: a plasmid (pCDNA3.1/NAAA or pCDNA3.1/FAAH) carrying a whole NAAA/FAAH gene was constructed, wherein the plasmid carried Cytomegalovirus (CMV) promoter and Neomycin selectable gene; the plasmid was transformed into HEK-293 cell via lipid medium, stable cell lines expressing NAAA/FAAH at a high level were obtained by G418 screening and Western-blot method. HEK-293 recombinant cells were cultured and collected, washed with PBS for 2-3 times, and ultrasonically treated in 20 mM Tris-HCl containing 0.32 M sucrose, then repeatedly frozen and thawed twice, and then centrifuged at 4° C., 800 g for 15 min. The supernatant (i.e., the desired protein) was collected, the protein concentration was determined by BCA method, and the protein was diluted to a concentration of 1 mg/mL, and sub-packaged and stored in a refrigerator at −80° C. for further use.In the Experimental example, PBS solution used was prepared as followed: 8 g NaCl, 0.2 g KCl, 1.44 g Na2HPO4, and 0.24 g KH2PO4 were dissolved in 1 L ultrapure water, and the resultant solution was subjected to moist heat sterilization and stored at 4° C.30 μL (1 mg/mL) endocannabinoid hydrolase was added to a sample vial, and 2 μL DMSO (Blank control group) or a different concentration of a test compound (Compounds 1-46 prepared in the Examples according to the invention) was further added. The reaction was carried out at 37° C. for 10 min. 170 μL buffer (the buffer consisted of 50 mM disodium Hydrogen Phosphate, 0.1% Triton X-100, 3 mM DTT, 150 μL) containing enzymatic hydrolysis substrate (the substrate was a heptadecenoyl ethanolamine containing a double bond and 17 carbon atoms, abbreviated as 17:1 FAE) was further added, wherein the concentration of 17:1 FAE was 5 μM. The reaction was carried out at 37° C. for 30 min, and 200 μL methanol solution containing internal standard (the internal standard was margaric acid, at a concentration of 1 nmol) was then added to stop the reaction. LC-MS was used to determine the yield of the hydrolysate 17:1 FA (i.e., a heptadecenoic acid containing a double bond) of 17:1 FAE, then a graph was plotted with Graphpad Prism 5. Thereby, the IC50 of the test compound on endocannabinoid hydrolase was determined.By the method above, the inhibitory effects of the Compounds 1-46 prepared in the invention on NAAA and FAAH were determined.).
T1 sequence (Q02083 whole entry): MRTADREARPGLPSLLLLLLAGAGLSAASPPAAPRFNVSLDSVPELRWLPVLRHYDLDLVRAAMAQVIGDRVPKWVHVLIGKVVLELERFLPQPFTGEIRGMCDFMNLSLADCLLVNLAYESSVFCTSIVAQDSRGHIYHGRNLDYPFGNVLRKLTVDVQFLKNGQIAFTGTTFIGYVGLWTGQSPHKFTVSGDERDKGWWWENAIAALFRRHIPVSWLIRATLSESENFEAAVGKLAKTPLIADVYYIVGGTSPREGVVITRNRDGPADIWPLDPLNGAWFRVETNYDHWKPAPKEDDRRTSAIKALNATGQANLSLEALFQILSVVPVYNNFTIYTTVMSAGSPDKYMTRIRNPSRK

Row | SMILES | IC50 [nM]
1 | CCCCCCCCCCCCCCCC(=O)N1CCNC1=O | 5400
2 | O=C1OCCN1C(=O)c1ccc(Oc2cccc(Cl)c2)cc1 | 370
3 | O=C(CCCCCCc1ccc(Cl)cc1Cl)N1CCOC1=O | 2200
4 | C[C@@H]1COC(=O)N1C(=O)CCCCCc1ccccc1 | 910
5 | O=C(CCCCc1cccc(Cl)c1)N1CCOC1=O | 370
6 | O=C1OCCN1C(=O)c1cccc(OCc2ccccc2)c1 | 78600
7 | O=C(CCCCCCCc1ccccc1)N1CCOC1=O | 21000
8 | O=C(CCCCCc1ccc(Cl)cc1)N1CCOC1=O | 5100
9 | O=C1OCCN1C(=O)c1ccc(OCc2ccccc2)cc1 | 3400
10 | CC(=O)C[C@@H]1COC(=O)N1C(=O)CCCCCc1cccc(C)c1 | 380
11 | O=C(CCCCCc1ccc2cc(F)ccc2c1)N1CCOC1=O | 5700
12 | CCCCCCCCCCCCCCCC(=O)N1CCOC1=O | 46800
13 | O=C(CCCCCc1c[nH]c2ccccc12)N1CCOC1=O | 23500
14 | O=C(CCCCCC1CCCNC1)N1CCOC1=O (stereo not given) | 130
15 | O=C(CCCCCc1ccoc1)N1CCOC1=O | 360
16 | CC(=O)C[C@@H]1COC(=O)N1C(=O)CCCCCc1ccc(C)cc1 | 450

Further lines, results first:

Row | IC50 [nM] | SMILES
17 | 11200 | O=C(CCCCc1ccccc1)N1CCOC1=O
18 | 250 | O=C(CCCCCc1cccc(F)c1)N1CCOC1=O
19 | 920 | O=C(CCCCCc1ccc2ccccc2c1)N1CCOC1=O
20 | 9400 | O=C(CCCCCCc1ccccc1)N1CCOC1=O
21 | 210 | O=C(CCCCCc1ccccc1)N1CCOC1=O
22 | 340 | O=C(CCCCCc1ccsc1)N1CCOC1=O
23 | 9500 | O=C1OCCN1C(=O)c1cccc(-c2ccccc2)c1
24 | 180 | O=C(CCCCCC1CCCCC1)N1CCOC1=O
25 | 850 | O=C(CCCCc1ccc(F)cc1)N1CCOC1=O
